Data as given in PMC7067653 (Bioorganic & medicinal chemistry letters, 2020).

Columns and labels:
[1] = target: T1, human serotonin 5-HT1A receptor (Homo sapiens, UniProt P08908); experiment: Binding affinity at human serotonin 5-HT1A receptor; settings: triplicate; na = not active (< 50% inhibition in a primary assay)
T1 sequence (P08908 1-422): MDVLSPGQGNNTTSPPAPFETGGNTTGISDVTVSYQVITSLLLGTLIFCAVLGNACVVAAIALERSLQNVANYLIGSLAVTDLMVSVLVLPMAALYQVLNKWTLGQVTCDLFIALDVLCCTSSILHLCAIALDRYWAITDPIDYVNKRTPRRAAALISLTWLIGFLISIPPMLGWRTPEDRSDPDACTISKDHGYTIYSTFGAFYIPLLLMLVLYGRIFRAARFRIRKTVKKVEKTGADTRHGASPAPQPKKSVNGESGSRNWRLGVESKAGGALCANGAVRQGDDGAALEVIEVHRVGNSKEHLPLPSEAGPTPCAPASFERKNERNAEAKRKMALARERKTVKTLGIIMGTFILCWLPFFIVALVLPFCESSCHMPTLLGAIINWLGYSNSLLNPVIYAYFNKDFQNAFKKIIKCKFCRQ

[2] = target: human dopamine D1 receptor (Homo sapiens, UniProt P21728); experiment: Binding affinity at human dopamine D1 receptor; settings: amide versus aniline precursor
[3] = target: human dopamine D2 receptor (Homo sapiens, UniProt P14416); experiment: Binding affinity at human dopamine D2 receptor; settings: triplicate; na = not active (< 50% inhibition in a primary assay)
human dopamine D2 receptor, sequence (P14416 whole entry): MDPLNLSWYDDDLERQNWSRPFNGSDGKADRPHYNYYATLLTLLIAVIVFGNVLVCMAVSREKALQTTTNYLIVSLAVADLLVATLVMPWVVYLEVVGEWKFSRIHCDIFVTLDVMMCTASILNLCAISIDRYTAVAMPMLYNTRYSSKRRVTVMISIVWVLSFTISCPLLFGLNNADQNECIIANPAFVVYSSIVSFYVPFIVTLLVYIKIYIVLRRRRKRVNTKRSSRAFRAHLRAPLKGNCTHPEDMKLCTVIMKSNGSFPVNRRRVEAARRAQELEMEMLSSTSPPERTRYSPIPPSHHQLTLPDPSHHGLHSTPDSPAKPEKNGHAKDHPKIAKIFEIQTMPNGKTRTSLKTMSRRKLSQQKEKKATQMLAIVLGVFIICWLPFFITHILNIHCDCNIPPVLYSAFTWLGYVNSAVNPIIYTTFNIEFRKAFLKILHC

human dopamine D1 receptor, sequence (P21728 whole entry): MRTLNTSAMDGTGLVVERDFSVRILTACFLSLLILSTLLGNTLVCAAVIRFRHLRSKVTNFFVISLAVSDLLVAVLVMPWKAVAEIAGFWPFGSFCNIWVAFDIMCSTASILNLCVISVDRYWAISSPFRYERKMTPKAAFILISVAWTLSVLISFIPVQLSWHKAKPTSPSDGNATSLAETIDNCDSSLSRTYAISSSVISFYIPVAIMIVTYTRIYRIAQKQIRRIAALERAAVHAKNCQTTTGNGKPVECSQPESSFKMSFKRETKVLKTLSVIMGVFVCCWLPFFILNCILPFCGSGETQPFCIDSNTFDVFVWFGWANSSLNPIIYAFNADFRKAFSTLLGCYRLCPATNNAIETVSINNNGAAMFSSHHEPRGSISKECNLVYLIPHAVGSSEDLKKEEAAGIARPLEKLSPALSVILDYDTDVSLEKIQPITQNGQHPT

Row | SMILES | Ki 5-HT1A [1] | fold increase in D1 receptor affinity on N-acylation [2] | Ki D2 [3]
1 | C=CCOc1c(OC)cc2c3c1-c1cc(N)ccc1CC3N(C)CC2 (stereo not shown) [Compound 19d] | no affinity |  | 
2 | C=CCOc1c(OC)cc2c3c1-c1cc(NC(C)=O)ccc1CC3N(C)CC2 (stereo not shown) [Compound 20b] |  | ≤ 12 fold | no D2 receptor affinity
3 | C#CCOc1c(OC)cc2c3c1-c1cc(NC(C)=O)ccc1CC3N(C)CC2 (stereo not shown) [Compound 20c] |  | ≤ 12 fold | 
